Source: patent US20230285397A1, “EGFR INHIBITOR” (TAIHO PHARMACEUTICAL CO., LTD., priority 2020, published 2023)

Experiments:
[1] = tested on: H1975-EGFRinsSVD cell line; experiment: Antitumor effect confirmation test (in vivo) on subcutaneous transplantation models; set-up: species or system nude mouse (BALB/cAJcl-nu/nu); details: Examples 2, 11 and 12 orally at 25, 25 and 50 mg/kg/day, Days 1-14; Dunnett test P<0.001
Experimental: When the tumor volumes of nude mice having tumor engraftment became on the order of 100 to 200 mm^3, the mice were assigned to groups each involving 6 animals by random stratification such that the average tumor volume was equal among the groups.
The test compound used was the compounds of Examples 2, 11, and 12, and a 0.5% HPMC aqueous solution was used as a control. The compounds of Examples 2, 11 and 12 were orally administered at doses of 25 mg/kg/day, 25 mg/kg/day and 50 mg/kg/day, respectively.
Each test compound or the control was orally administered every day for 14 days (Days 1-14) from the day following the grouping.
To compare the transition of tumor growth over time by the administration of each test compound, a tumor volume (which is also referred to as “TV” below) was measured at a frequency of twice a week over time. […] A body weight change percentage is also referred to as “BWC” below.
BWCn(%)=((body weight on n^th day)−(body weight on grouping day)]/[(body weight on grouping day)×100

EGFR [D770_N771insNPG] = target: T1, EGFR [D770_N771insNPG] (Homo sapiens, UniProt P00533, INS772GNP); experiment: Phosphorylation activity inhibitory effect (in vitro), kinase assay at Carna Biosciences; assay type: biochemical; details: ATP near Km
T1 construct: fused on or other part: Probably an N-terminal GST tag (Carna product)
T1 sequence (P00533 with tags, fused parts or gaps INS772GNP): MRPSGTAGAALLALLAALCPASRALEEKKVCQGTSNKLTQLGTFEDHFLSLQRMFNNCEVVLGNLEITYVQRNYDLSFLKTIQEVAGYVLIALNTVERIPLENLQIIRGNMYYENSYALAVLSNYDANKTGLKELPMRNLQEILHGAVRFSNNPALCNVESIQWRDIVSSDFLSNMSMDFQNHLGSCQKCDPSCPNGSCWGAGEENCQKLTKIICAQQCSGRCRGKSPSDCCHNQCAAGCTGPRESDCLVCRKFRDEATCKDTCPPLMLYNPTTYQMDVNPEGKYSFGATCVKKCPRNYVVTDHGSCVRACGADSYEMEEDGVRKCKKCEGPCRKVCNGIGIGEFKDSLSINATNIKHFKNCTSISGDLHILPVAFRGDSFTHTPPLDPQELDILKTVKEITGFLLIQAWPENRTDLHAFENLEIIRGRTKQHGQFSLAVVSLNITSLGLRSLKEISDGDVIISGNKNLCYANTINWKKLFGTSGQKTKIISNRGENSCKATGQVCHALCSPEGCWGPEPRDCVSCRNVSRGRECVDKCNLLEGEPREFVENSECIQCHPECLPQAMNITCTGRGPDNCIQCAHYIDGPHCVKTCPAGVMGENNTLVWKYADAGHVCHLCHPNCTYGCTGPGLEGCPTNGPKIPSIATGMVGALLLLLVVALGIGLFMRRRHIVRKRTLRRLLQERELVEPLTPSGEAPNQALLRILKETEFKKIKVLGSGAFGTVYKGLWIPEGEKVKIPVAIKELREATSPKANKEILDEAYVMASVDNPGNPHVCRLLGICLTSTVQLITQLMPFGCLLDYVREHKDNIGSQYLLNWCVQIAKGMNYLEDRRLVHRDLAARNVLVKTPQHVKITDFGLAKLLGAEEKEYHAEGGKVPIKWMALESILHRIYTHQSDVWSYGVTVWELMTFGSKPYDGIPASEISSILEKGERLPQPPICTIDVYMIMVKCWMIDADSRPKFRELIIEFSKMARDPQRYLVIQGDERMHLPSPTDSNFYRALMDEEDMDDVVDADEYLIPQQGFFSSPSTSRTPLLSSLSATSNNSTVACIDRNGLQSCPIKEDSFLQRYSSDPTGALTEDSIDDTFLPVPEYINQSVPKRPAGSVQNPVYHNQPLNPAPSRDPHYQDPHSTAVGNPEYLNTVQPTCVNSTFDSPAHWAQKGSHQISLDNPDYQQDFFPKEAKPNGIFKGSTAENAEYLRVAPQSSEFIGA
Experimental: The measurement of the in vitro inhibitory activity of a compound against wild-type and mutant EGFR was outsourced to Carna Biosciences, Inc. (Kinase Profiling Book, https://www.carnabio.com/japanese/product/search.cgi?mode=profiling).
Specifically, first, the compound of the present invention was diluted stepwise with dimethyl sulfoxide (DMSO). […] To the reaction solution, Termination Buffer was added, so as to terminate the kinase reaction. Finally, using LabChip™ EZ Reader II (PerkinElmer), an unphosphorylated substrate peptide (S) and a phosphorylated peptide (P) were separated and detected according to microchannel capillary electrophoresis.

[2] = Evaluation of oral absorbability; assay type: in vivo; details: BALB/cA mice, 50 mg/kg/day
Experimental: The compound of the present invention was suspended or dissolved in 0.5% HPMC aqueous solution and 0.1 N hydrochloric acid, and the obtained suspension or solution was orally administered to BALB/cA mice (CLEA Japan, Inc.) at a dose of 50 mg/kg/day. At 0.5, 1, 2, 4 and 6 hours after completion of the oral administration, blood was collected from the facial vein over time, so as to obtain plasma. The concentration of the compound in the obtained plasma was measured by LC-MS/MS, and the oral absorbability of the present compound was evaluated.

[3] = Evaluation of brain penetration properties; assay type: in vivo; details: BALB/cA mice, oral, 50 mg/kg/day, 0.5 hours
Experimental: The compound of the present invention was suspended or dissolved in 0.5% HPMC aqueous solution and 0.1 N hydrochloric acid, and the obtained suspension or solution was orally administered to BALB/cA mice (CLEA Japan, Inc.) at a dose of 50 mg/kg/day. At 0.5 hours after completion of the oral administration, blood was collected from the facial vein, and whole brain was then excised, so as to obtain plasma and brain samples. Water was added to the obtained brain sample in 3 times the volume of the brain sample, and the resultant was then homogenized using an ultrasonic homogenizer, so as to obtain a brain homogenate. The concentration of the compound in the obtained plasma and brain homogenate was measured by LC-MS/MS, and the brain penetration properties of the present compound were evaluated from the brain/plasma concentration of the compound.

Structure (SMILES)	Antitumor effect: tumor volume (TV) on Day 15 compared with the control group [1]	IC50 (EGFR [D770_N771insNPG]) [pM]	Attenuation of oral absorbability relative to the compound of the present invention [2]	Attenuation of brain concentration relative to the compound of the present invention [3]
C=CC(=O)N1C[C@H](n2c(C#CC(C)(C)C)c(C(=O)N[C@H](C)c3ccccc3)c3c(N)ncnc32)C[C@@H]1C [Example 12, 7-((3R,5S)-1-acryloyl-5-methylpyrrolidin-3-yl)-4-amino-6-(3,3-dimethylbut-1-yn-1-yl)-N—((R)-1-phenylethyl)-7H-pyrrolo[2,3-d]pyrimidine-5-carboxamide]	excellent antitumor effects	–	–	–
C=CC(=O)N1C[C@H](n2c(C#CC)c(C(=O)N[C@H](C)c3ccccc3)c3c(N)ncnc32)C[C@@H]1C [Example 2, 7-((3R,5S)-1-acryloyl-5-methylpyrrolidin-3-yl)-4-amino-N—((R)-1-phenylethyl)-6-(prop-1-yn-1-yl)-7H-pyrrolo[2,3-d]pyrimidine-5-carboxamide]	excellent antitumor effects	–	–	–
C=CC(=O)N1C[C@H](n2c(C#CC3CC3)c(C(=O)N[C@H](C)c3ccccc3)c3c(N)ncnc32)C[C@@H]1C [Example 11, 7-((3R,5S)-1-acryloyl-5-methylpyrrolidin-3-yl)-4-amino-6-(cyclopropylethynyl)-N—((R)-1-phenylethyl)-7H-pyrrolo[2,3-d]pyrimidine-5-carboxamide]	excellent antitumor effects	550	–	–
C=CC(=O)N1C[C@H](n2nc(C(=O)Nc3ccc(CC(=O)N(C)C)c(C)c3C)c3c(N)ncnc32)C[C@@H]1C [Comparative Example 2, 1-((3R,5S)-1-acryloyl-5-methylpyrrolidin-3-yl)-4-amino-N-(4-(2-(dimethylamino)-2-oxoethyl)-2,3-dimethylphenyl)-1H-pyrazolo[3,4-d]pyrimidine-3-carboxamide]	–	–	more than 4 times	more than 80 times
